Measurements reported in ChEMBL document CHEMBL1201862, “PubChem BioAssay data set” (2004).
One block for each molecule: values may come before it. Active and inactive are the calls of the source.

What was measured:
INS1 [1] = assay: inhibitors of cytokine-induced nitrite release, dose response, cell-based, Griess absorbance, INS-1E, dry powder, set 2 (AID 488868); type: functional; settings: Rattus norvegicus
INS1 [2] = assay: protection of INS-1E cells from cytokine death, dose response, ATP luminescence, dry powder (AID 488844); type: functional, cell-based; settings: Rattus norvegicus
INS1 [3] = assay: caspase-3/7 inhibition in cytokine-treated INS-1E, dose response, beta-cell apoptosis inhibitor project, cell-based, caspase luminescence, dry powder (AID 488848); type: functional; settings: Rattus norvegicus
INS1 [4] = assay: protection from cytokine-driven beta-cell apoptosis, dose response, JC-1 fluorescence, INS-1E, dry powder, set 2 (AID 488867); type: functional, cell-based; settings: Rattus norvegicus
[5] = inhibitors of cytokine-induced nitrite release, dose response, cell-based, Griess absorbance, INS-1E, dry powder, set 3 (AID 488870); type: functional; settings: Rattus norvegicus
[6] = target: T1, Sentrin-specific protease 6 (Homo sapiens, UniProt Q9GZR1); assay: SENP6 protease inhibitors, SAR follow-up, biochemical, luminescence, set 2 (AID 588598); type: functional
T1 sequence (Q9GZR1 whole entry): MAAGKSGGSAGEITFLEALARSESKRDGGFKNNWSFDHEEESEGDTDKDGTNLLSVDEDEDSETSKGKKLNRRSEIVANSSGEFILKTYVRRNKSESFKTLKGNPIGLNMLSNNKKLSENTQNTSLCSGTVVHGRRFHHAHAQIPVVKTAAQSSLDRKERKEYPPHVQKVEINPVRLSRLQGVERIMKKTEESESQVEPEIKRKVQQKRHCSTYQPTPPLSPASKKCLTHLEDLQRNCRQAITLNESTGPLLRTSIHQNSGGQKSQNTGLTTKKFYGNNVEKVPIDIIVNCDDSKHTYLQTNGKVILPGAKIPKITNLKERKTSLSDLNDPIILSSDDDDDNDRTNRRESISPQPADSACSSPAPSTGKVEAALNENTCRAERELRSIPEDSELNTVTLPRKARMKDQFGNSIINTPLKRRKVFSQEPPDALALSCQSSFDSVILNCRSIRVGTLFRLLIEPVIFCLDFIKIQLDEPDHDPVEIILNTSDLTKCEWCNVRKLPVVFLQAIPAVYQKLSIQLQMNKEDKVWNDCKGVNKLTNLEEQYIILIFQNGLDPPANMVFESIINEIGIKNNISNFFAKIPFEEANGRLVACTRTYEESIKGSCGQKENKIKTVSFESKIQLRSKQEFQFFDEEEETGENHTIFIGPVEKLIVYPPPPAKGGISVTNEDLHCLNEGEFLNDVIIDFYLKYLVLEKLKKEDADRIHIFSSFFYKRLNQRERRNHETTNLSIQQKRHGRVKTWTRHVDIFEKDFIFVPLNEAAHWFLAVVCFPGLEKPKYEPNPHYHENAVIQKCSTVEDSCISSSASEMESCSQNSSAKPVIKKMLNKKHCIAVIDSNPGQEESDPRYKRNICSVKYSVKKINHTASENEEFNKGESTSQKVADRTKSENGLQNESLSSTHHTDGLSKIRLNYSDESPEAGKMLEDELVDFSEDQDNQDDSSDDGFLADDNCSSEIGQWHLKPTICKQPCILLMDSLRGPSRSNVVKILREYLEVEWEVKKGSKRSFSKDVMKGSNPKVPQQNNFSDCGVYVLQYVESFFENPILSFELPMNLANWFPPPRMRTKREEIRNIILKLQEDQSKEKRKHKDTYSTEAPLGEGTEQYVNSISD

[7] = target: T2, Sentrin-specific protease 8 (Homo sapiens, UniProt Q96LD8); assay: SENP8 protease inhibitors, SAR follow-up, biochemical, luminescence, set 2 (AID 588601); type: functional
T2 sequence (Q96LD8 whole entry): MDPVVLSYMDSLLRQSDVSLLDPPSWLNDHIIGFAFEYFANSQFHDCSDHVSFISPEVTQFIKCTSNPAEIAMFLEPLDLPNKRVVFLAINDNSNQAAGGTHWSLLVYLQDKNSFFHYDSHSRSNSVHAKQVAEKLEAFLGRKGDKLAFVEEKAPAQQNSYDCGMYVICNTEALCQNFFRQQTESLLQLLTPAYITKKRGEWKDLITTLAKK

[8] = target: T3, Sentrin-specific protease 7 (Homo sapiens, UniProt Q9BQF6); assay: SENP7 protease inhibitors, SAR follow-up, biochemical, luminescence, set 2 (AID 588600); type: functional
T3 sequence (Q9BQF6 whole entry): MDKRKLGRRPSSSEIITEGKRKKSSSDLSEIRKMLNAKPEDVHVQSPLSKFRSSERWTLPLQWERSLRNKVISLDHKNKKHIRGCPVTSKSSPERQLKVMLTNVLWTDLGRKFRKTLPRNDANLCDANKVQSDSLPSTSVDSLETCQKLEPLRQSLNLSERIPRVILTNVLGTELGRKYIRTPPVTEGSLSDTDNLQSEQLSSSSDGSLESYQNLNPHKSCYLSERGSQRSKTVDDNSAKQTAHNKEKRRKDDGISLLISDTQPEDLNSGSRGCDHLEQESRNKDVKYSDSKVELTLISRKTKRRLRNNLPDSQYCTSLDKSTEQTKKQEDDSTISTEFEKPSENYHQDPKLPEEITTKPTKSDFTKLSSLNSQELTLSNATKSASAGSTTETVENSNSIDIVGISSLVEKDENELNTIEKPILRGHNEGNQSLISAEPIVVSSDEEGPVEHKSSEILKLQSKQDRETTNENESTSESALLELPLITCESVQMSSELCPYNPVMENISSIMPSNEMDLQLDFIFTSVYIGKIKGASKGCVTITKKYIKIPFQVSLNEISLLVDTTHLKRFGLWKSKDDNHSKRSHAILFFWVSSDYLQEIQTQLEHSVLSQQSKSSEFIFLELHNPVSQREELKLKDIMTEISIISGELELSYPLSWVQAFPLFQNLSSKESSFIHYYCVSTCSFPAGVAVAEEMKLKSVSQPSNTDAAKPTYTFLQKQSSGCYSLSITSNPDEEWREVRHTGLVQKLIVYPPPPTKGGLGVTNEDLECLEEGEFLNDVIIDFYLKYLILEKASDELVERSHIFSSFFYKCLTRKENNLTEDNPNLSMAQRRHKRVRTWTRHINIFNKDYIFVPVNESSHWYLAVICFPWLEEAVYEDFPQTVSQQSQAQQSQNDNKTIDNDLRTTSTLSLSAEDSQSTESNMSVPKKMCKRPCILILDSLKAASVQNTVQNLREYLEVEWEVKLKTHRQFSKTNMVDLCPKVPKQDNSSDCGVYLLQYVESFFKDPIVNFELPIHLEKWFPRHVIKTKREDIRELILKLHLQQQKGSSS

Caspase-3 = target: T4, Caspase-3 (Homo sapiens, UniProt P42574); assay: caspase-3 inhibitors as off-family protease, SAR follow-up, selectivity assay for SENP protease inhibitor project, biochemical, luminescence, set 2 (AID 588599); type: functional
T4 sequence (P42574 whole entry): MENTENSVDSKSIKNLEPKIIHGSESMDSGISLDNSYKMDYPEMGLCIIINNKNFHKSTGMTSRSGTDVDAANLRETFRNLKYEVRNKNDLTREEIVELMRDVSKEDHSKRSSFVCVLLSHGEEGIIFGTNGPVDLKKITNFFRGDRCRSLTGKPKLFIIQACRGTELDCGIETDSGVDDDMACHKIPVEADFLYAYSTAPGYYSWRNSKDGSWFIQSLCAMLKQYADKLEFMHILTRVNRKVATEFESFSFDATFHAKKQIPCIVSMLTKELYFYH

Phospholipase D1 = Phospholipase D1 (Homo sapiens, UniProt Q13393); assay: PLD1 inhibitor potency in cells, dose response (AID 602151); type: functional;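 note: cellular PLD1 assay in Calu-1 cells stimulated with PMA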
Chain of Phospholipase D1 (Q13393 whole entry): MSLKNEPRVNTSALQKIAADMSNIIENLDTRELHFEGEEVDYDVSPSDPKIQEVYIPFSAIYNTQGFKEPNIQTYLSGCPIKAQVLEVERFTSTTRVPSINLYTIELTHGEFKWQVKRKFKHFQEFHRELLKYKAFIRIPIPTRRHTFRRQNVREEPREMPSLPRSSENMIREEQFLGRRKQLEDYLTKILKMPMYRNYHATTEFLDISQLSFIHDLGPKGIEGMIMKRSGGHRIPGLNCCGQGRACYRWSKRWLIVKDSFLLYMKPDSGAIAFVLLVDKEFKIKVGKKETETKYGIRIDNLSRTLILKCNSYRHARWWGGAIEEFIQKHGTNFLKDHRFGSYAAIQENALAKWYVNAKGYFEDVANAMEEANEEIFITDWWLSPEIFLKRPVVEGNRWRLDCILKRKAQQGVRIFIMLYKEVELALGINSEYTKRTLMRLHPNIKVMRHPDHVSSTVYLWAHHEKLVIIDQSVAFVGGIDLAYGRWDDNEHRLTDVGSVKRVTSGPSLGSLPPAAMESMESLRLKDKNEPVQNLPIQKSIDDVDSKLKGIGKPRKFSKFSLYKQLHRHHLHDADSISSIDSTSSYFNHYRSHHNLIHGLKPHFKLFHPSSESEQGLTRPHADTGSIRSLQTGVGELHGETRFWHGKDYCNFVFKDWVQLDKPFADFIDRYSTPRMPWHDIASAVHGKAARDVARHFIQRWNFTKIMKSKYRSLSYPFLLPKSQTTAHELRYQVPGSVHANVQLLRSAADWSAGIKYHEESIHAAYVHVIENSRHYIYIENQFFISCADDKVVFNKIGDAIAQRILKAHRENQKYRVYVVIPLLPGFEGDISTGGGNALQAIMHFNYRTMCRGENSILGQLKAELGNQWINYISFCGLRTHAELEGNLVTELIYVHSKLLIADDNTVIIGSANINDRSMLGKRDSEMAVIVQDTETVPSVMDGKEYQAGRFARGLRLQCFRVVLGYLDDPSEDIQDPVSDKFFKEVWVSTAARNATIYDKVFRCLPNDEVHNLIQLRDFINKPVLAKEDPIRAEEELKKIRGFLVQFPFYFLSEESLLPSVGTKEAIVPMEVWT

Phospholipase D2 = Phospholipase D2 (Homo sapiens, UniProt O14939); assay: PLD2 inhibitor potency in cells, dose response (AID 602147); type: functional;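 note: cellular assay in HEK293 cells overexpressing GFP-tagged PLD2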
Chain of Phospholipase D2 (O14939 whole entry): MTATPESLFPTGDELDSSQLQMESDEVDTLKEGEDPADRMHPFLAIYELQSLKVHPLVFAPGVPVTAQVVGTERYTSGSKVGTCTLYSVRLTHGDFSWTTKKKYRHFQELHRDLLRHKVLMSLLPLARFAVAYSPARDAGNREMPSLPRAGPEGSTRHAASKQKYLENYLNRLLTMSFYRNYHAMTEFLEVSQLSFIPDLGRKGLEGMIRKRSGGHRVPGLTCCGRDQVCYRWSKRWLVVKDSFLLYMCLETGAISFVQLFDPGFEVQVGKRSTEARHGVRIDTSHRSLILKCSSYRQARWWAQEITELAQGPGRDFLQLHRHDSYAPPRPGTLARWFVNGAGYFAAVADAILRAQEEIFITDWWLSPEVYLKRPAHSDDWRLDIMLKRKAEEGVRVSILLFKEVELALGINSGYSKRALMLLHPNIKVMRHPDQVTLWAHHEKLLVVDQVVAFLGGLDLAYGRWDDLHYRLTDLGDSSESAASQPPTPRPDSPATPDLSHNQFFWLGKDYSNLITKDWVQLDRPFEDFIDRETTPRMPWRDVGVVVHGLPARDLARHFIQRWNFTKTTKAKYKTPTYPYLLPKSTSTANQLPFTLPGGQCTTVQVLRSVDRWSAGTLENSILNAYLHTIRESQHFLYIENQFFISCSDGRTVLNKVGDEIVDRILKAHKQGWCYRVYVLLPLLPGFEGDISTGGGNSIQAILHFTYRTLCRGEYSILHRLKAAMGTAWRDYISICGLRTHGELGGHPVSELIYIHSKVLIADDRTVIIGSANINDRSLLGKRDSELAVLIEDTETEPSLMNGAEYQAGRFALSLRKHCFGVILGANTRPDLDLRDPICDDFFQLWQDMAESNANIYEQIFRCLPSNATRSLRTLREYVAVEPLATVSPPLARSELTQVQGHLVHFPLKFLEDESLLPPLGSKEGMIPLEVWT

[9] = target: Sphingosine 1-phosphate receptor 2 (Homo sapiens, UniProt O95136); assay: Late-stage fluorescence-based dose-response cell-based counterscreen assay to identify agonists of the Sphingosine 1-Phosphate Receptor 3 (S1P3): Sphingosine 1-Phosphate Receptor 2 (S1P2) agonist assay.; type: functional
Chain of Sphingosine 1-phosphate receptor 2 (O95136 whole entry): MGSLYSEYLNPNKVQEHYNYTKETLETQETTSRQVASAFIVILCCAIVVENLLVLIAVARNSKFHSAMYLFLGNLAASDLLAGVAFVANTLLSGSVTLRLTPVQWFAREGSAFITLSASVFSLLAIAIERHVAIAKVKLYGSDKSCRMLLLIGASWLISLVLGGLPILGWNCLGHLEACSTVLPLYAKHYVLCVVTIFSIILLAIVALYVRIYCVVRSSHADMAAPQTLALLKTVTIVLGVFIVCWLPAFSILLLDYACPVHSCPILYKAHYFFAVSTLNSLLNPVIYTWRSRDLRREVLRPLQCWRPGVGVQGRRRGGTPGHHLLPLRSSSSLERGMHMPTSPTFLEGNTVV

[10] = target: T5, Sphingosine 1-phosphate receptor 4 (Homo sapiens, UniProt O95977); assay: Late-stage fluorescence-based dose-response cell-based counterscreen assay to identify agonists of the Sphingosine 1-Phosphate Receptor 3 (S1P3): Sphingosine 1-Phosphate Receptor 4 (S1P4) agonist assay.; type: functional
T5 sequence (O95977 whole entry): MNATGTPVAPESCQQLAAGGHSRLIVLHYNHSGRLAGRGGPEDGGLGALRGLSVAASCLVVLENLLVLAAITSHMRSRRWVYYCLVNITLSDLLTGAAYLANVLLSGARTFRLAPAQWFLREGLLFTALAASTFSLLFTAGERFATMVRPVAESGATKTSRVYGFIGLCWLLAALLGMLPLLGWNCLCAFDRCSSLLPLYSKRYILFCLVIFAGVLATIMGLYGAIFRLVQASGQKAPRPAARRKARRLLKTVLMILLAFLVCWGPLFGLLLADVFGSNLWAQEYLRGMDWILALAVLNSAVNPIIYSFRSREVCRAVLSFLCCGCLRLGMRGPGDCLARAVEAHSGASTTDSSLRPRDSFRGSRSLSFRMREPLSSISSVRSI

Structure (SMILES): COc1ccc(S(=O)(=O)N(C)C[C@@H]2Oc3c(NC(=O)Nc4cccc5ccccc45)cccc3C(=O)N([C@@H](C)CO)C[C@H]2C)cc1
AC50 (INS1 [1]): 46.8 µM (active)
AC50 (INS1 [2]): 4.88 µM (active)
AC50 (INS1 [3]): 81.2 µM (active)
AC50 (INS1 [4]): 259 µM (active)
AC50 [5]: 26.4 µM (active)

IC50 [6]: > 99 µM (inactive)
IC50 [8]: > 99 µM (inactive)
IC50 (Caspase-3): > 99 µM (inactive)
Structure (SMILES): Cc1ccccc1-c1noc(/C(C#N)=C\c2ccccc2F)n1
IC50 [7]: > 99 µM (inactive)

Structure (SMILES): O=C(NCCN1CCC2(CC1)CCN(c1ccccc1)C2=O)c1cnc2ccccc2c1
IC50 (Phospholipase D1): 20 µM (inactive)
IC50 (Phospholipase D2): 20 µM (active)

EC50 [9]: > 50 µM (inactive)
EC50 [10]: > 50 µM (inactive)
Structure (SMILES): O=C(c1ccc(C2CC2)o1)N(C1CCCCC1)C1CCCCC1
